Values after ≈ are worked out from the molar mass of the structure shown. Like-named read-outs stand apart in the source and are kept apart here.
Experiments:
[1] = system: P. aeruginosa 2686; assay: MIC against P. aeruginosa 2686; assay type: cell-based; details: Table 3, P. aeruginosa 2686, KPC-2
Description: (§1) As shown, the foregoing composition was tested for minimum inhibitory concentration (MIC, μg/mL) against bacteria listed in Tables 2-3.

[2] = system: E. cloacae 2689; assay: MIC against E. cloacae 2689; assay type: cell-based; details: Table 3, E. cloacae 2689, KPC-2
Description: as §1

[3] = system: C. freundii 2487; assay: MIC against C. freundii 2487; assay type: cell-based; details: Table 2, C. freundii 2487, Caz R, IMP S
Outline: (§2)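 Compounds were tested alone or combined with a β-lactamase inhibitor such as NXL-104, and growth inhibition is reported as minimum inhibitory concentration in μg/mL. Ceftazidime served as the reference cephem.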

[4] = system: E. cloacae596; assay: MIC against E. cloacae596; assay type: cell-based, E. cloacae; details: Table 2, E. cloacae596, Caz R, IMP S
Outline: as §2

[5] = system: K. pneumoniae 4104; assay: MIC against K. pneumoniae 4104; assay type: cell-based; details: K. pneumoniae 4104, KPC-3, TEM-1
Description: as §1

[6] = system: K. pneumoniae 4088; assay: MIC against K. pneumoniae 4088; assay type: cell-based; details: Table 3, K. pneumoniae 4088, KPC-3
Description: as §1

[7] = system: S. aureus3137; assay: MIC against S. aureus3137; assay type: cell-based, S. aureus; details: Table 2, S. aureus3137, MSSA
Outline: as §2

[8] = system: E. cloacae 2706; assay: MIC against E. cloacae 2706; assay type: cell-based; details: Table 3, E. cloacae 2706, VIM-1, KPC-3
Description: as §1

[9] = system: E. cloacae 552; assay: MIC against E. cloacae 552; assay type: cell-based; details: Table 2, E. cloacae 552, Caz S, IMP S
Outline: as §2

[10] = system: E. coli 2671; assay: MIC against E. coli 2671; assay type: cell-based; details: Table 2, E. coli 2671, VIM-19
Outline: as §2

[11] = system: E. coli 2666; assay: MIC against E. coli 2666; assay type: cell-based; details: Table 3, E. coli 2666, KPC-2
Description: as §1

[12] = system: C. freundii 15; assay: MIC against C. freundii 15; assay type: cell-based; details: Table 2, C. freundii 15, Caz R, IMP S
Outline: as §2

[13] = system: K. baumanii 4095; assay: MIC against K. baumanii 4095; assay type: cell-based; details: Table 2, K. baumanii 4095, OXA-48
Outline: as §2

[14] = system: E. coli 4101; assay: MIC against E. coli 4101; assay type: cell-based; details: Table 2, E. coli 4101, CTX-M-14, TEM-1
Outline: as §2

[15] = system: K. baumanii 4094; assay: MIC against K. baumanii 4094; assay type: cell-based; details: Table 2, K. baumanii 4094, OXA-51
Outline: as §2

[16] = system: K. pneumoniae 4107; assay: MIC against K. pneumoniae 4107; assay type: cell-based; details: K. pneumoniae 4107, KPC-2, TEM-1, SHV-11
Description: as §1

[17] = system: K. pneumoniae 2689; assay: MIC against K. pneumoniae 2689; assay type: cell-based; details: K. pneumoniae 2689, KPC-2
Description: as §1

[18] = system: K. pneumoniae 2697; assay: MIC against K. pneumoniae 2697; assay type: cell-based; details: Table 2, K. pneumoniae 2697, IMP-4
Outline: as §2

[19] = system: K. baumanii 4091; assay: MIC against K. baumanii 4091; assay type: cell-based; details: Table 2, K. baumanii 4091, OXA-23
Outline: as §2

[20] = system: P. aeruginosa 2573; assay: MIC against P. aeruginosa 2573; assay type: cell-based; details: Table 2, P. aeruginosa 2573, OXA-10 (Class D)
Outline: as §2

[21] = system: S. pneumoniae 2403; assay: MIC against S. pneumoniae 2403; assay type: cell-based; details: Table 2, S. pneumoniae 2403, Pen S
Outline: as §2

[22] = system: E. coli 2668; assay: MIC against E. coli 2668; assay type: cell-based; details: Table 2, E. coli 2668, OXA-48
Outline: as §2

[23] = system: S. pneumoniae 2389; assay: MIC against S. pneumoniae 2389; assay type: cell-based; details: Table 2, S. pneumoniae 2389, Pen R
Outline: as §2

[24] = system: E. coli 4103; assay: MIC against E. coli 4103; assay type: cell-based; details: Table 3, E. coli 4103, KPC-2, TEM-1, CMY-type
Description: as §1

[25] = Pseudomonas aeruginosa, alone, read-out: MIC
[26] = Enterobacter cloacae, alone, read-out: MIC
[27] = Citrobacter freundii, alone, read-out: MIC
[28] = Table 2, in combination with NXL-104
[29] = Table 3, in combination with NXL-104
[30] = Klebsiella pneumoniae, alone, read-out: MIC
[31] = Escherichia coli, alone, read-out: MIC
[32] = Streptococcus pneumoniae, alone, read-out: MIC

## CC(C)(O/N=C(\C(=O)N[C@@H]1C(=O)N2C(C(=O)[O-])=C(C[n+]3ccc4c(ccn4Cc4cc(C(=N)N)co4)c3)CS[C@H]12)c1csc(N)n1)C(=O)O [Example 6, (6R,7R)-7-{[(2Z)-2-(2-Amino-1,3-thiazol-4-yl)-2-{[(2-carboxypropan-2-yl)oxy]imino}acetyl]amino}-3-({1-[(4-carbamimidoylfuran-2-yl)methyl]-1H-pyrrolo[3,2-c]pyridin-5-ium-5-yl}methyl)-8-oxo-5-thia-1-azabicyclo[4.2.0]oct-2-ene-2-carboxylate]
[1]; [25]
  MIC: 32 µg/mL (≈ 45.2 µM)
[1]; in combination with NXL-104
  MIC: 8 µg/mL
[2]; [26]
  MIC: 16 µg/mL (≈ 22.6 µM)
[2]; in combination with NXL-104
  MIC: 1 µg/mL
[3]; [27]
  MIC: 8 µg/mL
[3]; in combination with NXL-104
  MIC: 1.00 µg/mL
[4]; [26]
  MIC: 8 µg/mL
[4]; in combination with NXL-104
  MIC: 0.50 µg/mL
[5]; Klebsiella pneumoniae, 4104, Table 2, alone, read-out: MIC
  MIC: 32 µg/mL (≈ 45.2 µM)
[5]; Klebsiella pneumoniae, 4104, Table 3, alone, read-out: MIC
  MIC: 32 µg/mL (≈ 45.2 µM)
[5]; [28]
  MIC: 2.00 µg/mL
[5]; [29]
  MIC: 0.5 µg/mL
[6]; [30]
  MIC: > 32 µg/mL
[6]; in combination with NXL-104
  MIC: 2 µg/mL
[7]; Staphylococcus aureus, alone, read-out: MIC
  MIC: 32 µg/mL
[7]; in combination with NXL-104
  MIC: 8.00 µg/mL
[8]; [26]
  MIC: > 32 µg/mL
[8]; in combination with NXL-104
  MIC: 32 µg/mL
[9]; [26]
  MIC: 0.12 µg/mL
[9]; in combination with NXL-104
  MIC: 0.25 µg/mL
[10]; [31]
  MIC: 32 µg/mL
[10]; in combination with NXL-104
  MIC: 32.00 µg/mL
[11]; [31]
  MIC: 16 µg/mL (≈ 22.6 µM)
[11]; in combination with NXL-104
  MIC: 1 µg/mL
[12]; [27]
  MIC: 8 µg/mL
[12]; in combination with NXL-104
  MIC: 0.50 µg/mL
[13]; alone, read-out: MIC
  MIC: 0.12 µg/mL
[13]; in combination with NXL-104
  MIC: 0.25 µg/mL
[14]; [31]
  MIC: 0.5 µg/mL
[14]; in combination with NXL-104
  MIC: ≤0.06 µg/mL
[15]; alone, read-out: MIC
  MIC: 16 µg/mL
[15]; in combination with NXL-104
  MIC: 8.00 µg/mL
[16]; Klebsiella pneumoniae, 4107, Table 2, alone, read-out: MIC
  MIC: 32 µg/mL (≈ 45.2 µM)
[16]; Klebsiella pneumoniae, 4107, Table 3, alone, read-out: MIC
  MIC: 16 µg/mL (≈ 22.6 µM)
[16]; [28]
  MIC: 2.00 µg/mL
[16]; [29]
  MIC: 1 µg/mL
[17]; Klebsiella pneumoniae, 2689, Table 2, alone, read-out: MIC
  MIC: 16 µg/mL (≈ 22.6 µM)
[17]; Klebsiella pneumoniae, 2689, Table 3, alone, read-out: MIC
  MIC: 16 µg/mL (≈ 22.6 µM)
[17]; [28]
  MIC: 1.00 µg/mL
[17]; [29]
  MIC: 1 µg/mL
[18]; [30]
  MIC: 16 µg/mL
[18]; in combination with NXL-104
  MIC: 0.50 µg/mL
[19]; alone, read-out: MIC
  MIC: 16 µg/mL
[19]; in combination with NXL-104
  MIC: 4.00 µg/mL
[20]; [25]
  MIC: 2 µg/mL
[20]; in combination with NXL-104
  MIC: 2.00 µg/mL
[21]; [32]
  MIC: ≤ 0.06 µg/mL
[21]; in combination with NXL-104
  MIC: ≤0.06 µg/mL
[22]; [31]
  MIC: 0.5 µg/mL
[22]; in combination with NXL-104
  MIC: 0.12 µg/mL
[23]; [32]
  MIC: 2 µg/mL
[23]; in combination with NXL-104
  MIC: 2.00 µg/mL
[24]; [31]
  MIC: > 32 µg/mL
[24]; in combination with NXL-104
  MIC: 4 µg/mL

Source: patent publication USRE48097E1, “Cephem compounds, their production and use” (priority 2015, dated 2020)
